Patent US5840910A, “Pyridine derivatives having anti-ulcerative activity” (Esai Co., Ltd., priority 1986, dated 1998)
pIC50: −log10 of the molar value. Entries after “also recorded” stand apart in the source; their conditions may differ. Counter-ions that a name gives are not always drawn. Blank lines part the entries; values can stand above or below the compound they belong to.

Experiments:
[1] = biological target: T1, H^+ -K^+ ATPase (Sus scrofa, UniProt P19156); assay: Inhibition against the activity of H^+ -K^+ ATPase; format: biochemical, pig; conditions: for pIC50: 40 mM Tris-HCl pH 7.40, 37° C., 30 minutes incubation
T1 construct: Prepared from the fundic-glands of a fresh mucous membrane of a pig stomach; from tissue; host or cells: pig stomach, fundic glands of fresh mucous membrane (modified method of Saccomani et al., 1977)
T1 sequence (P19156 2-1034 limits assumed): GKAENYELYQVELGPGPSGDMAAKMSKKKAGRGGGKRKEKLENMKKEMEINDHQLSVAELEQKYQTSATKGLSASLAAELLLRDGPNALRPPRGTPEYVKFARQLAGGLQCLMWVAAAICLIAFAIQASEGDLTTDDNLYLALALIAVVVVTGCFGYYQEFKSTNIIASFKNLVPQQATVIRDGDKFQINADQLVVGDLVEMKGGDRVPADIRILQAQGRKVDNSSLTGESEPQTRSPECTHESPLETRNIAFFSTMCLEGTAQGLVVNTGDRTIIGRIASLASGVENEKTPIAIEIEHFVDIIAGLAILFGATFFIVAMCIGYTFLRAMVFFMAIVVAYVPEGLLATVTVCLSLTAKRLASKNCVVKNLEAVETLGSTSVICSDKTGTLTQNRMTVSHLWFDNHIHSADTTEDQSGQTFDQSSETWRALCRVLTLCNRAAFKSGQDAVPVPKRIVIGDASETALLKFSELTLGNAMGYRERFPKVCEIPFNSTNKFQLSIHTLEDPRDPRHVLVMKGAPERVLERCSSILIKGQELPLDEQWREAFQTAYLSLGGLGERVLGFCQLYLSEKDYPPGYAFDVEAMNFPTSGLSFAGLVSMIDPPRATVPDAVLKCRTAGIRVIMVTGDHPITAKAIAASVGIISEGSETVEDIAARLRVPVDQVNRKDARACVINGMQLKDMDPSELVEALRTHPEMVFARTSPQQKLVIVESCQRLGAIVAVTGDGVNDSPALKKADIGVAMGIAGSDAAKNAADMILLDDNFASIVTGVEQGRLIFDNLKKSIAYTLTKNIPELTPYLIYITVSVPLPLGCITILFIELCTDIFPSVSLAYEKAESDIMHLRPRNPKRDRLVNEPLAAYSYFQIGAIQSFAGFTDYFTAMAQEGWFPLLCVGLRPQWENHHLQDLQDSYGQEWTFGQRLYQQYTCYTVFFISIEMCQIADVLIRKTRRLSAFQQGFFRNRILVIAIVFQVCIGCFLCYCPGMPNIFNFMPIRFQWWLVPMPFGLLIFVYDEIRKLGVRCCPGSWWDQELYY
T1 sequence (P18434 whole entry partner): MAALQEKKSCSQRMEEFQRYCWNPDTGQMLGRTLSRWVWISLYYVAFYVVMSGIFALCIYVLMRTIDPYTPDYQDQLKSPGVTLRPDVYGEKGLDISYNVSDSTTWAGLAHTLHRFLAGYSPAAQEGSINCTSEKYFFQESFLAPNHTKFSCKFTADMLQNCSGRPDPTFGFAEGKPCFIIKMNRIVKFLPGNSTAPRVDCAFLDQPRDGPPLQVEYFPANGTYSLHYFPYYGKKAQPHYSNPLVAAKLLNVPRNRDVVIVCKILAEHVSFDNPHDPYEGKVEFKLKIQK
Procedure: Prepared from the fundic-glands of a fresh mucous membrane of a pig stomach according to a modified method of Saccomani al. (see Biochem. and Biophys. Acta, 464; 313 (1977)). The compound of the present invention was incubated at various concentration in a 40 mM Tris-HCl buffer solution having a pH of 7.40 together with H^+ -K^+ ATPase and 10 μg/ml of a protein at 37° C. for 30 minutes, followed by the addition of 15 mM KCl. After 10 minutes, the ATPase reaction was initiated by the addition of 3 mM of MgCl2 and ATP. After 10 minutes, the amount of the released inorganic phosphoric acid was determined according to the method of Yoda and Hokin (see Biochem. Biophys. Res. Com., 40, 880 (1970)). The test compound was used as a solution in methanol. The inhibitory effect was determined by subtracting the amount of the released inorganic acid observed with respect to the case wherein a solution of a test compound was added from that with respect to the control wherein only a solvent was added to determine a difference and dividing this difference by the latter amount and shown by percentage.

[2] = system: pentagastrin-stimulated gastric acid secretion; assay: Pentagastrin-stimulated gastric acid secretion and its recovery in chronic gastric fistula dogs; format: in vivo, dog; conditions: for Time required for the acid secretion to recover: 4 mg per kg intraduodenal; for Gastric acid secretion, percent of the control response, 1 hr: 1 hr after 4 mg per kg intraduodenal; for Gastric acid secretion, percent of the control response, 24 hr: 24 hr after 4 mg per kg intraduodenal; for Gastric acid secretion, percent of the control response, 48 hr: 48 hr after 4 mg per kg intraduodenal; for Inhibition of pentagastrin-stimulated gastric acid secretion (in words): within one hour from intraduodenal administration, 4 mg per kg
Procedure: Chronic gastric fistula dogs were used. The test compound was intraduodenally administered to each dog in an amount of 4 mg per kg. In 1, 24, 48 and 72 hours, respectively, from the time of administration, pentagastrin (6 micron grams per kg) was injected intramuscularly into the dog. Gastric acid secretion, determined and recovery thereof, was determined in terms of percent of the control response.

[3] = system: histamine-stimulated gastric acid secretion; assay: Inhibitory effect on histamine-stimulated gastric acid secretion of chronic gastric fistula dogs; format: in vivo, dog; conditions: for ED50: Canis lupus familiaris, 1 h, intraduodenal, histamine-stimulated, read-out: ID 50, calculated from the dose-inhibition curve
Procedure: Chronic gastric fistula dogs were used. Gastric acid secretion of each dog was stimulated by infusing 100 micron grams per kg per hour of histamine. After one hour of histamine infusion, each of the test compounds was administered intraduodenally to each dog, and after one hour of administration, the amount of gastric acid secretion of each test dog was determined. Results wore compared with the control group to which no test compound had been administered and are expressed in terms of percent inhibition.

[4] = Toxicological influence, oral, one week, beagle dogs; format: in vivo; conditions: 10 mg/kg per day for one week
[5] = Toxicological influence, oral, one week, rats; format: in vivo; conditions: rats (printed rate), 50 mg/kg per day for one week

Compound: Cc1c(OCCOCc2ccccc2)ccnc1C[S+]([O-])c1nc2ccccc2[nH]1 (stereo not drawn) [Compound 1]
pIC50 [1]: 6.04

Compound: Cc1c(OCCOCc2ccccc2)ccnc1C[S+]([O-])c1nc2cc(C(F)(F)F)ccc2[nH]1 (stereo not drawn) [Compound 3]
pIC50 [1]: 6.00

Compound: Cc1c(OCCN2C(=O)CCC2=O)ccnc1C[S+]([O-])c1nc2ccccc2[nH]1 (stereo not drawn) [Compound 4]
pIC50 [1]: 4.96

Compound: COCCOCCOc1ccnc(C[S+]([O-])c2nc3cc(C(F)(F)F)ccc3[nH]2)c1C (stereo not drawn) [Compound 6]
pIC50 [1]: 6.26

Compound: COCCOCCOc1ccnc(C[S+]([O-])c2nc3cc(OC)ccc3[nH]2)c1C (stereo not drawn) [Compound 7]
pIC50 [1]: 5.77

Compound: Cc1c(OCCOCc2ccccn2)ccnc1C[S+]([O-])c1nc2ccccc2[nH]1 (stereo not drawn) [Compound 8]
pIC50 [1]: 5.92

Compound: COc1ccc2[nH]c([S+]([O-])Cc3nccc(OCCN4CCCC4=O)c3C)nc2c1 (stereo not drawn) [Compound 9]
pIC50 [1]: 4.89

Compound: COc1ccc2[nH]c([S+]([O-])Cc3nccc(OCCOCCOCc4ccccc4)c3C)nc2c1 (stereo not drawn) [Compound 11]
pIC50 [1]: 5.38

Compound: Cc1c(OCCOCCOCc2ccccc2)ccnc1C[S+]([O-])c1nc2cc(C(F)(F)F)ccc2[nH]1 (stereo not drawn) [Compound 13]
pIC50 [1]: 6.20

Compound: COc1ccc2[nH]c([S+]([O-])Cc3nccc(OCCN4C(=O)CCC4=O)c3C)nc2c1 (stereo not drawn) [Compound 14]
pIC50 [1]: 5.00

Compound: Cc1c(OCCN2C(=O)CCC2=O)ccnc1C[S+]([O-])c1nc2cc(C(F)(F)F)ccc2[nH]1 (stereo not drawn) [Compound 15]
pIC50 [1]: 7.14

Compound: COc1ccc2[nH]c([S+]([O-])Cc3nccc(OCCO)c3C)nc2c1 (stereo not drawn) [Compound 17]
pIC50 [1]: 5.46

Compound: COCCCOc1ccnc(C[S+]([O-])c2nc3ccccc3[nH]2)c1C (stereo not drawn) [Compound 19, Sodium Salt of 2-[{4-(3-Methoxypropoxy)-3-Methylpyridine-2-Yl}Methylsulfinyl]-1H-Benzimidazole]
Inhibitory effect on the activity of H^+ -K^+ ATPase (in words) [1]: significant inhibitory effect
pIC50 [1]: 5.77
Time required for the acid secretion to recover ([2]; pentagastrin): 48 h
Gastric acid secretion, percent of the control response, 1 hr ([2]; pentagastrin): 0%
Gastric acid secretion, percent of the control response, 24 hr ([2]; pentagastrin): 61.9%
Gastric acid secretion, percent of the control response, 48 hr ([2]; pentagastrin): 121.5%
Recovery of gastric acid secretion (in words) ([2]; dog, in vivo): excellent gastric acid secretion recovery
Inhibition of pentagastrin-stimulated gastric acid secretion (in words) [2]: completely inhibited
% Inhibition of acid output ([3]; 31.25 μg/Kg intraduodenal): 34.4%
% Inhibition of acid output ([3]; 62.5 μg/Kg intraduodenal): 50.1%
% Inhibition of acid output ([3]; 125 μg/Kg intraduodenal): 67.7%
% Inhibition of acid output ([3]; 250 μg/Kg intraduodenal): 87.4%
% Inhibition of acid output ([3]; 500 μg/Kg intraduodenal): 100.0%
ED50 [3]: 0.0599 mg/kg
Potency compared with Omeprazole, inhibition of gastric acid secretion ([3]; versus Omeprazole): two times more potent; also recorded: more potent inhibitory activity on gastric acid secretion as compared with Omeprazole
Toxicological influence [4]: No toxicological influence has been observed
Toxicological influence [5]: No toxicological influence has been observed

Compound: CSCCOc1ccnc(C[S+]([O-])c2nc3ccccc3[nH]2)c1C (stereo not drawn) [Compound 20]
pIC50 [1]: 5.64

Compound: Cc1c(OCCOc2ccccc2)ccnc1C[S+]([O-])c1nc2ccccc2[nH]1 (stereo not drawn) [Compound 21]
pIC50 [1]: 5.89

Compound: COc1ccc2[nH]c([S+]([O-])Cc3ncc(C)c(OC)c3C)nc2c1 (stereo not drawn) [Omeprazole, reference compound]
Time required for the acid secretion to recover ([2]; pentagastrin): 72 h
Gastric acid secretion, percent of the control response, 1 hr ([2]; pentagastrin): 0.3%
Gastric acid secretion, percent of the control response, 24 hr ([2]; pentagastrin): 32.3%
Gastric acid secretion, percent of the control response, 48 hr ([2]; pentagastrin): 69.1%
Gastric acid secretion, percent of the control response, 72 hr ([2]; 72 hr after 4 mg per kg intraduodenal, pentagastrin): 108.4%
Inhibition of pentagastrin-stimulated gastric acid secretion (in words) [2]: completely inhibited
% Inhibition of acid output ([3]; 62.5 μg/Kg intraduodenal): 41.1%
% Inhibition of acid output ([3]; 125 μg/Kg intraduodenal): 48.6%
% Inhibition of acid output ([3]; 250 μg/Kg intraduodenal): 62.1%
% Inhibition of acid output ([3]; 500 μg/Kg intraduodenal): 91.2%
% Inhibition of acid output ([3]; 1000 μg/Kg intraduodenal): 100.0%
ED50 [3]: 0.112 mg/kg

Next, values leading:

pIC50 [1]: 5.85
Compound: COc1ccc2[nH]c([S+]([O-])Cc3nccc(OCCOCc4ccccc4)c3C)nc2c1 (stereo not drawn) [Compound 2]

pIC50 [1]: 5.62
Compound: Cc1c(OCCN2CCCC2=O)ccnc1C[S+]([O-])c1nc2ccccc2[nH]1 (stereo not drawn) [Compound 5]

pIC50 [1]: 5.72
Compound: Cc1c(OCCO)ccnc1C[S+]([O-])c1nc2ccccc2[nH]1 (stereo not drawn) [Compound 10]

pIC50 [1]: 5.59
Compound: Cc1c(OCCOCCOCc2ccccc2)ccnc1C[S+]([O-])c1nc2ccccc2[nH]1 (stereo not drawn) [Compound 12]

pIC50 [1]: 5.77
Compound: Cc1c(OCCN2CCCC2=O)ccnc1C[S+]([O-])c1nc2cc(C(F)(F)F)ccc2[nH]1 (stereo not drawn) [Compound 16]

pIC50 [1]: 5.48
Compound: COCCOCCOc1ccnc(C[S+]([O-])c2nc3ccccc3[nH]2)c1C (stereo not drawn) [Compound 18]

pIC50 [1]: 5.72
Compound: Cc1c(OCCCO)ccnc1C[S+]([O-])c1nc2ccccc2[nH]1 (stereo not drawn) [Compound 22]

pIC50 [1]: 5.85
Compound: Cc1c(OCCOCCCl)ccnc1C[S+]([O-])c1nc2ccccc2[nH]1 (stereo not drawn) [Compound 23]
